SMILES strings stand for the structures.

Assay [1] relates to outpatients with MDD. Put plainly: Randomized double-blind 4-week trial, response by 17-item Hamilton Rating Scale for Depression (HAMD17). The class given is in vivo, human. From the text: The 75 patients in this report were a subset of the 165 patients who entered a randomized, double-blind, flexible dosing, placebo-controlled study performed at 12 clinical sites. […] Subjects selected for this study were those with serum samples and HAMD17 scores available at baseline and 1 week and at 4 weeks (+/−1 week) after treatment. Finally, the subset of participants in this study largely overlaps with those used in our previous study.
Study participants were outpatients, 18–65 years of age, from various clinical sites across the United States. […] A complete description of the inclusion and exclusion used in this study can be found in Table S1. The study protocol was developed in accordance with the principles of the Declaration of Helsinki. All patients provided written informed consent. The study was sponsored and monitored by Pfizer, Inc. Each site's institutional review board approved and oversaw the study. The primary outcome measure was the HAMD17, used to assess depressive symptom severity. Measures were gathered at baseline, and weeks 1 and 4 of treatment at the patient's visits. Serum samples were collected using standard protocol at baseline, week 1 and week 4 of treatment at the clinic visits. Whole blood was collected in serum collection tubes and inverted 5–8 times. Serum samples were allowed to clot at room temperature for 60 minutes and then centrifuged at 1,300×g for 15 minutes. Following centrifugation supernatant was frozen at −80°C until analysis.
(§1) Signatures of response to sertraline and placebo were identified by using paired t-tests to compare week 4 metabolite levels to baseline metabolite levels in the responders and non-responders to therapy. […] These analyses were also performed to evaluate changes in ratios of individual metabolites within (e.g., 5-HT/5-HTP) and between branches of tryptophan pathway (e.g., KYN/MEL).

Assay [2] deals with 5-Methoxytryptamine (5-MTPM). Description: GCTOF-MS measurement of serum 5-Methoxytryptamine (5-MTPM): change from baseline at week 1 and week 4. The class given is in vivo, human. The following applies: for Change in 5-MTPM levels / Change 5-MTPM: serum; for Change in 5-MTPM levels: four weeks; for Change 5-MTPM: log-transformed concentration. As for the experimental part: Samples were analyzed using a liquid chromatography electrochemical array (LCECA) platform that has been extensively validated and used in our prior studies in neurodegenerative and psychiatric disorders [30]–[34]. The method includes multiple compounds from the tyrosine, tryptophan, sulfur amino acids and purine pathways, and markers of oxidative stress and protection (for the list of metabolites and abbreviations see Table 1). Levels of 5-Methoxytryptamine (5-MTPM) were measured using a gas chromatography time-of-flight-mass spectrometry (GCTOF-MS) platform. Samples were prepared for analysis as previously described. During the sample preparation, pools were created from equal volumes of subaliquots of all samples. Concentrations of metabolites in the individual samples were expressed as a percentage of the concentration of those metabolites in the averaged pool.
Data preprocessing: We first removed the metabolites that have more than 40% missing values. […] Principal components analysis (PCA; SIMCA-P+12.0) was used to identify outliers. The analysis was performed for each time point. […] Subjects with ≥3 standard deviations away from the center of data cloud within two principal components (PC's) scores scatter plot were considered outliers and were removed from further analysis.
These analyses were conducted separately for the sertraline and placebo groups. Between groups t-tests were used to compare baseline to one week and baseline to four week change scores between the sertraline and placebo groups.
as §1

With `CN[C@H]1CC[C@@H](c2ccc(Cl)c(Cl)c2)c2ccccc21` [Sertraline, sertraline], the figures for the “APC, average percent change in HAMD17 score” value in assay [1] (Female patients) and in assay [1] (Non-White patients) were “Female: APC= -55%” and “Non-White: APC= -52%”, respectively. For the same molecule, in assay [1] (after four weeks, 21/35 patients, 50-150 mg/day), the “response rate (responders: ≥50% reduction in HAMD17 scores)” value turned out to be 60%. For the same molecule, the “Change of 5-MTPM (average change of log-transformed concentration)” value in assay [2] (after four week of treatment, non-responders) was -0.11; in assay [2] (after four week of treatment, responders), -0.42; in assay [2] (after one week of treatment, non-responders), -0.052. In addition, the figures for the “Change in 5-MTPM levels” value in assay [2] (good responders to sertraline) and in assay [2] (non-responders to sertraline) were “significant decrease” and “not significantly changed”, respectively. The “Change 5-MTPM” value in assay [2] (after four weeks, sertraline group) was −0.29; in assay [2] (after one week, responders to sertraline), -0.21.

Values taken from PMC3714282, “Pharmacometabolomics of Response to Sertraline and to Placebo in Major Depressive Disorder – Possible Role for Methoxyindole Pathway” (PLoS ONE, 2013).
